The text below walks through data of paper PMC11240924, “Isolation, Identification, and Biological Activities of a New Chlorin e6 Derivative” (International Journal of Molecular Sciences, 2024).

The assay can be described thus: Singlet oxygen photogeneration (DPBF quenching). The note with it: 1 µM, DMSO, DPBF 50 μM, 660 nm laser 0.5 J/cm^2. Here is the method: Singlet oxygen photoregeneration was carried out using 1, 3-diphenylisobenzofuran (DPBF) in DMSO. DPBF is a selective ^1O2 acceptor that reacts with ^1O2. The sample solutions of DPBF (50 μM) which contained DPBF only (50 μM, as a control), MB (1, 5, and 10 μM), chlorin e6 (1, 5, and 10 μM), and rhodin g7 7^1-ethyl ester (1, 5, and 10 μM) were prepared under dark conditions. All of the samples were placed in a 96-well plate, which was covered with aluminum foil. The samples were then irradiated (660 nm, 50 mW, 0.5 J/cm^2) for 1 min and 40 s, and after irradiation, the visible spectra of the sample solutions were measured spectrophotometrically. The normalized absorbance of DPBF at 418 nm was measured in these samples. The ^1O2 photo-generation activities of MB, chlorin e6, and rhodin g7 7^1-ethyl ester can be compared with the different absorbance decay of each sample relative to the DPBF control sample.

As for `CN(C)c1ccc2nc3ccc(=[N+](C)C)cc-3sc2c1` [MB, Methylene blue, reference compound], the “^1O2 generation (DPBF absorbance at 418 nm)” value is on record as 22.22%.
